PubChem BioAssay AID588648 (The Scripps Research Institute Molecular Screening Center, 2011)
The source made the active and inactive calls.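 The calls were made as follows: active = Change of at least 30% in epidermal growth factor receptor protein level versus solvent-only controls, drop or rise; inactive = receptor level change under 30% either way.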

Tested on: HCT116 EGFR protein level, western blot, 24 h
Assay: EGFR protein lowering in cells – cell-based, HCT116 colorectal carcinoma, chemiluminescent western blot, counter-screen for KLF5 inhibitor project, late-stage follow-up (AID 588648)
Details: at 10 µM; for inhibition: stronger effect = higher value; for fold change: measured here: EGFR band fold change vs DMSO

SMILES | inhibition | fold change
CN(C(=O)CNC(=O)/C=C/c1cccc(Cl)c1)C1CCS(=O)(=O)C1 (stereo unspecified) | 10.3% (inactive) | -1.11
CN(C(=O)COC(=O)/C=C/c1cccc([N+](=O)[O-])c1)C1CCS(=O)(=O)C1 (stereo unspecified) | 1.68% (inactive) | -1.02
CN(C(=O)CNC(=O)/C=C/c1cccc(Cl)c1)C1CCS(=O)(=O)CC1 | 12.7% (inactive) | -1.15
